Experiments:
[1] = test system: CHEAL Lambsquarters, Common; assay: Preemergence herbicidal evaluation, CHEAL; type: in vivo, Chenopodium album, L.; design: scale not given here; details: preemergence
How it was run: (§1)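 Seeds mixed with potting soil in cups, then sprayed preemergence with aqueous acetone test solution at about 0.013 to 0.800 kg per hectare equivalent. Cups kept under standard greenhouse care; plants rated on a visual scale four to five weeks after treatment.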

[2] = test system: TRZAWR Wheat, Winter, cv Riband; assay: Preemergence herbicidal evaluation, TRZAWR; type: in vivo, Triticum aestivum; design: scale not given here; details: preemergence
How it was run: as §1

[3] = test system: IPOHE Morningglory, Ivyleaf; assay: Postemergence herbicidal evaluation, IPOHE; type: in vivo, Ipomoea hederacea, (L.) Jacq.; design: scale not given here; details: postemergence spray, rated about two-three weeks after treatment
How it was run: (§2)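 Ratings from greenhouse plants scored about two to three weeks after a foliar spray; data from multiple tests averaged. Seedlings about two weeks old received roughly 0.006–0.400 kg/ha active compound in 80/20 acetone/water with 1.0% methylated seed oil.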

ZEAMX Corn, Field [4] = assay: Preemergence herbicidal evaluation, ZEAMX; type: in vivo, Zea mays, L. (Sammel-Bezeichnung); design: scale not given here; details: preemergence
How it was run: as §1

ECHOG Barnyardgrass [5] = assay: Postemergence herbicidal evaluation, ECHOG; type: in vivo, Echinochloa crus-galli, (L.) Beau; design: scale not given here; details: postemergence spray, rated about two-three weeks after treatment
How it was run: as §2

ABUTH Velvetleaf [6] = assay: Preemergence herbicidal evaluation, ABUTH; type: in vivo, Abutilon theophrasti, Medic.; design: scale not given here; details: preemergence
How it was run: as §1

[7] = test system: IPOHE Morningglory, Ivyleaf; assay: Preemergence herbicidal evaluation, IPOHE; type: in vivo, Ipomoea hederacea, (L.) Jacq.; design: scale not given here; details: preemergence
How it was run: as §1

ECHOG Barnyardgrass [8] = assay: Preemergence herbicidal evaluation, ECHOG; type: in vivo, Echinochloa crus-galli, (L.) Beau; design: scale not given here; details: preemergence
How it was run: as §1

GLXMAW Soybean, Williams [9] = assay: Preemergence herbicidal evaluation, GLXMAW; type: in vivo, Glycine max, (L.) Merr. cv Williams; design: scale not given here; details: preemergence
How it was run: as §1

[10] = test system: TRZAWR Wheat, Winter, cv Riband; assay: Postemergence herbicidal evaluation, TRZAWR; type: in vivo, Triticum aestivum; design: scale not given here; details: postemergence spray, rated about two-three weeks after treatment
How it was run: as §2

[11] = test system: CHEAL Lambsquarters, Common; assay: Postemergence herbicidal evaluation, CHEAL; type: in vivo, Chenopodium album, L.; design: scale not given here; details: postemergence spray, rated about two-three weeks after treatment
How it was run: as §2

CASOB Sicklepod [12] = assay: Preemergence herbicidal evaluation, CASOB; type: in vivo, Cassia obtusifolia, L.; design: scale not given here; details: preemergence
How it was run: as §1

CASOB Sicklepod [13] = assay: Postemergence herbicidal evaluation, CASOB; type: in vivo, Cassia obtusifolia, L.; design: scale not given here; details: postemergence spray, rated about two-three weeks after treatment
How it was run: as §2

AMBEL Ragweed, Common [14] = assay: Preemergence herbicidal evaluation, AMBEL; type: in vivo, Ambrosia artemisifolia, L.; design: scale not given here; details: preemergence
How it was run: as §1

SETVI Foxtail, Green [15] = assay: Postemergence herbicidal evaluation, SETVI; type: in vivo, Setaria viridis, (L.) Beau; design: scale not given here; details: postemergence spray, rated about two-three weeks after treatment
How it was run: as §2

ORYSAT Rice, Tebonnet [16] = assay: Preemergence herbicidal evaluation, ORYSAT; type: in vivo, Oryza sativa, (L.); design: scale not given here; details: preemergence
How it was run: as §1

AMBEL Ragweed, Common [17] = assay: Postemergence herbicidal evaluation, AMBEL; type: in vivo, Ambrosia artemisifolia, L.; design: scale not given here; details: postemergence spray, rated about two-three weeks after treatment
How it was run: as §2

GLXMAW Soybean, Williams [18] = assay: Postemergence herbicidal evaluation, GLXMAW; type: in vivo, Glycine max, (L.) Merr. cv Williams; design: scale not given here; details: postemergence spray, rated about two-three weeks after treatment
How it was run: as §2

GALAP Galium [19] = assay: Preemergence herbicidal evaluation, GALAP; type: in vivo, Galium aparine; design: scale not given here; details: preemergence
How it was run: as §1

ABUTH Velvetleaf [20] = assay: Postemergence herbicidal evaluation, ABUTH; type: in vivo, Abutilon theophrasti, Medic.; design: scale not given here; details: postemergence spray, rated about two-three weeks after treatment
How it was run: as §2

ORYSAT Rice, Tebonnet [21] = assay: Postemergence herbicidal evaluation, ORYSAT; type: in vivo, Oryza sativa, (L.); design: scale not given here; details: postemergence spray, rated about two-three weeks after treatment
How it was run: as §2

SETVI Foxtail, Green [22] = assay: Preemergence herbicidal evaluation, SETVI; type: in vivo, Setaria viridis, (L.) Beau; design: scale not given here; details: preemergence
How it was run: as §1

GALAP Galium [23] = assay: Postemergence herbicidal evaluation, GALAP; type: in vivo, Galium aparine; design: scale not given here; details: postemergence spray, rated about two-three weeks after treatment
How it was run: as §2

ZEAMX Corn, Field [24] = assay: Postemergence herbicidal evaluation, ZEAMX; type: in vivo, Zea mays, L. (Sammel-Bezeichnung); design: scale not given here; details: postemergence spray, rated about two-three weeks after treatment
How it was run: as §2

melting point: 52 to 65 °C
Structure (SMILES): CCc1cccc(-n2nnc3cc(F)c(-n4c(=O)cc(C(F)(F)F)n(C)c4=O)cc32)c1 [Example 29, 3-[1-(3-ethylphenyl)-5-fluoro-1H-1,2,3-benzotriazol-6-yl]-1-methyl-6-(trifluoromethyl)-2,4(1H,3H)-pyrimidinedione]
CHEAL herbicidal rating ([1]; rate 0.016 kg/ha): 9.0
CHEAL herbicidal rating ([1]; rate 0.032 kg/ha): 9.0
CHEAL herbicidal rating ([1]; rate 0.062 kg/ha): 9.0
CHEAL herbicidal rating ([1]; rate 0.125 kg/ha): 9.0
TRZAWR herbicidal rating ([2]; rate 0.016 kg/ha): 1.0
TRZAWR herbicidal rating ([2]; rate 0.032 kg/ha): 1.0
TRZAWR herbicidal rating ([2]; rate 0.062 kg/ha): 2.0
TRZAWR herbicidal rating ([2]; rate 0.125 kg/ha): 2.0
Postemergence herbicidal rating IPOHE ([3]; 0.008 kg/ha): 9.0
Postemergence herbicidal rating IPOHE ([3]; 0.016 kg/ha): 9.0
Postemergence herbicidal rating IPOHE ([3]; 0.032 kg/ha): 9.0
Postemergence herbicidal rating IPOHE ([3]; 0.062 kg/ha): 9.0
ZEAMX herbicidal rating (ZEAMX Corn, Field [4]; rate 0.016 kg/ha): 0.0
ZEAMX herbicidal rating (ZEAMX Corn, Field [4]; rate 0.032 kg/ha): 2.0
ZEAMX herbicidal rating (ZEAMX Corn, Field [4]; rate 0.062 kg/ha): 4.0
ZEAMX herbicidal rating (ZEAMX Corn, Field [4]; rate 0.125 kg/ha): 5.0
Postemergence herbicidal rating ECHCG (ECHOG Barnyardgrass [5]; 0.008 kg/ha): 1.0
Postemergence herbicidal rating ECHCG (ECHOG Barnyardgrass [5]; 0.016 kg/ha): 1.0
Postemergence herbicidal rating ECHCG (ECHOG Barnyardgrass [5]; 0.032 kg/ha): 1.0
Postemergence herbicidal rating ECHCG (ECHOG Barnyardgrass [5]; 0.062 kg/ha): 1.0
ABUTH herbicidal rating (ABUTH Velvetleaf [6]; rate 0.016 kg/ha): 6.0
ABUTH herbicidal rating (ABUTH Velvetleaf [6]; rate 0.032 kg/ha): 9.0
ABUTH herbicidal rating (ABUTH Velvetleaf [6]; rate 0.062 kg/ha): 9.0
ABUTH herbicidal rating (ABUTH Velvetleaf [6]; rate 0.125 kg/ha): 9.0
IPOHE herbicidal rating ([7]; rate 0.016 kg/ha): 0.0
IPOHE herbicidal rating ([7]; rate 0.032 kg/ha): 3.0
IPOHE herbicidal rating ([7]; rate 0.062 kg/ha): 6.0
IPOHE herbicidal rating ([7]; rate 0.125 kg/ha): 7.0
ECHCG herbicidal rating (ECHOG Barnyardgrass [8]; rate 0.016 kg/ha): 2.0
ECHCG herbicidal rating (ECHOG Barnyardgrass [8]; rate 0.032 kg/ha): 4.0
ECHCG herbicidal rating (ECHOG Barnyardgrass [8]; rate 0.062 kg/ha): 7.0
ECHCG herbicidal rating (ECHOG Barnyardgrass [8]; rate 0.125 kg/ha): 7.0
GLXMAW herbicidal rating (GLXMAW Soybean, Williams [9]; rate 0.016 kg/ha): 0.0
GLXMAW herbicidal rating (GLXMAW Soybean, Williams [9]; rate 0.032 kg/ha): 1.0
GLXMAW herbicidal rating (GLXMAW Soybean, Williams [9]; rate 0.062 kg/ha): 4.0
GLXMAW herbicidal rating (GLXMAW Soybean, Williams [9]; rate 0.125 kg/ha): 5.0
Postemergence herbicidal rating TRZAWR ([10]; 0.008 kg/ha): 2.0
Postemergence herbicidal rating TRZAWR ([10]; 0.016 kg/ha): 2.0
Postemergence herbicidal rating TRZAWR ([10]; 0.032 kg/ha): 2.5
Postemergence herbicidal rating TRZAWR ([10]; 0.062 kg/ha): 3.0
Postemergence herbicidal rating CHEAL ([11]; 0.008 kg/ha): 9.0
Postemergence herbicidal rating CHEAL ([11]; 0.016 kg/ha): 9.0
Postemergence herbicidal rating CHEAL ([11]; 0.032 kg/ha): 9.0
Postemergence herbicidal rating CHEAL ([11]; 0.062 kg/ha): 9.0
CASOB herbicidal rating (CASOB Sicklepod [12]; rate 0.016 kg/ha): 1.0
CASOB herbicidal rating (CASOB Sicklepod [12]; rate 0.125 kg/ha): 1.0
Postemergence herbicidal rating CASOB (CASOB Sicklepod [13]; 0.008 kg/ha): 0.0
Postemergence herbicidal rating CASOB (CASOB Sicklepod [13]; 0.016 kg/ha): 2.0
Postemergence herbicidal rating CASOB (CASOB Sicklepod [13]; 0.032 kg/ha): 2.0
Postemergence herbicidal rating CASOB (CASOB Sicklepod [13]; 0.062 kg/ha): 3.0
AMBEL herbicidal rating (AMBEL Ragweed, Common [14]; rate 0.016 kg/ha): 0.0
AMBEL herbicidal rating (AMBEL Ragweed, Common [14]; rate 0.032 kg/ha): 0.0
AMBEL herbicidal rating (AMBEL Ragweed, Common [14]; rate 0.062 kg/ha): 3.0
AMBEL herbicidal rating (AMBEL Ragweed, Common [14]; rate 0.125 kg/ha): 7.0
Postemergence herbicidal rating SETVI (SETVI Foxtail, Green [15]; 0.008 kg/ha): 1.0
Postemergence herbicidal rating SETVI (SETVI Foxtail, Green [15]; 0.016 kg/ha): 7.0
Postemergence herbicidal rating SETVI (SETVI Foxtail, Green [15]; 0.032 kg/ha): 9.0
Postemergence herbicidal rating SETVI (SETVI Foxtail, Green [15]; 0.062 kg/ha): 9.0
ORYSAT herbicidal rating (ORYSAT Rice, Tebonnet [16]; rate 0.016 kg/ha): 0.0
ORYSAT herbicidal rating (ORYSAT Rice, Tebonnet [16]; rate 0.032 kg/ha): 1.0
ORYSAT herbicidal rating (ORYSAT Rice, Tebonnet [16]; rate 0.062 kg/ha): 3.0
ORYSAT herbicidal rating (ORYSAT Rice, Tebonnet [16]; rate 0.125 kg/ha): 4.0
Postemergence herbicidal rating AMBEL (AMBEL Ragweed, Common [17]; 0.008 kg/ha): 7.0
Postemergence herbicidal rating AMBEL (AMBEL Ragweed, Common [17]; 0.016 kg/ha): 7.0
Postemergence herbicidal rating AMBEL (AMBEL Ragweed, Common [17]; 0.032 kg/ha): 6.0
Postemergence herbicidal rating AMBEL (AMBEL Ragweed, Common [17]; 0.062 kg/ha): 9.0
Postemergence herbicidal rating GLXMAW (GLXMAW Soybean, Williams [18]; 0.008 kg/ha): 5.0
Postemergence herbicidal rating GLXMAW (GLXMAW Soybean, Williams [18]; 0.016 kg/ha): 6.5
Postemergence herbicidal rating GLXMAW (GLXMAW Soybean, Williams [18]; 0.032 kg/ha): 8.0
Postemergence herbicidal rating GLXMAW (GLXMAW Soybean, Williams [18]; 0.062 kg/ha): 8.0
GALAP herbicidal rating (GALAP Galium [19]; rate 0.016 kg/ha): 0.0
GALAP herbicidal rating (GALAP Galium [19]; rate 0.032 kg/ha): 0.0
GALAP herbicidal rating (GALAP Galium [19]; rate 0.062 kg/ha): 1.0
GALAP herbicidal rating (GALAP Galium [19]; rate 0.125 kg/ha): 8.0
Postemergence herbicidal rating ABUTH (ABUTH Velvetleaf [20]; 0.008 kg/ha): 9.0
Postemergence herbicidal rating ABUTH (ABUTH Velvetleaf [20]; 0.016 kg/ha): 9.0
Postemergence herbicidal rating ABUTH (ABUTH Velvetleaf [20]; 0.032 kg/ha): 9.0
Postemergence herbicidal rating ABUTH (ABUTH Velvetleaf [20]; 0.062 kg/ha): 9.0
Postemergence herbicidal rating ORYSAT (ORYSAT Rice, Tebonnet [21]; 0.008 kg/ha): 2.0
Postemergence herbicidal rating ORYSAT (ORYSAT Rice, Tebonnet [21]; 0.016 kg/ha): 2.0
Postemergence herbicidal rating ORYSAT (ORYSAT Rice, Tebonnet [21]; 0.032 kg/ha): 2.0
Postemergence herbicidal rating ORYSAT (ORYSAT Rice, Tebonnet [21]; 0.062 kg/ha): 3.0
SETVI herbicidal rating (SETVI Foxtail, Green [22]; rate 0.016 kg/ha): 6.0
SETVI herbicidal rating (SETVI Foxtail, Green [22]; rate 0.032 kg/ha): 9.0
SETVI herbicidal rating (SETVI Foxtail, Green [22]; rate 0.062 kg/ha): 9.0
SETVI herbicidal rating (SETVI Foxtail, Green [22]; rate 0.125 kg/ha): 9.0
Postemergence herbicidal rating GALAP (GALAP Galium [23]; 0.008 kg/ha): 0.0
Postemergence herbicidal rating GALAP (GALAP Galium [23]; 0.016 kg/ha): 1.0
Postemergence herbicidal rating GALAP (GALAP Galium [23]; 0.032 kg/ha): 1.0
Postemergence herbicidal rating GALAP (GALAP Galium [23]; 0.062 kg/ha): 3.0
Postemergence herbicidal rating ZEAMX (ZEAMX Corn, Field [24]; 0.008 kg/ha): 3.5
Postemergence herbicidal rating ZEAMX (ZEAMX Corn, Field [24]; 0.016 kg/ha): 5.0
Postemergence herbicidal rating ZEAMX (ZEAMX Corn, Field [24]; 0.032 kg/ha): 5.0
Postemergence herbicidal rating ZEAMX (ZEAMX Corn, Field [24]; 0.062 kg/ha): 5.0

Source: patent US20020111274A1, “1-alkyl-3-[1-(substituted phenyl) benzotriazol-6-yl] uracils” (BASF Aktiengesellschaft, priority 2000, published 2002)
